Patent publication US4791059A, “Process for preparing lipase” (Suntory Limited, priority 1984, dated 1988)

Test system: lipase
Assay: Inhibition and activation of lipase activity by divalent metal ions, SH reagent and surface-active agents
Type: biochemical, Staphylococcus capitis
Description: The effects of the divalent metal ions, SH reagent and surface-active agents on the lipase activity were evaluated by measuring the residual activities after treatment. […] The lipase activity is increased 3-fold to 5-fold by the presence of Ca^2+.
The lipase activity is more than 90% inhibited by 2 mM sodium laurylsulfate (SDS), 2 mM iodine acetamide, 0.1% Tween 20, 0.1% Tween 80, and 0.1% Triton X-100.
One milliliter of olive oil is added to a test tube (.phi.25×200 mm) containing 5 ml of a reaction mixture consisting of 25 mM of a Tris-HCl buffer (pH 8.0) and 10 mM of CaCl2, the tube is stirred vigorously with a mixer, and 0.5 ml of an enzyme solution is added to the tube. The reaction is carried out during which the tube is shaken at 300 rpm on a reciprocating shaker. The reaction is stopped on the addition of 20 ml of ethanol and the fatty acids formed are titrated with 0.05 N of an aqueous sodium hydroxide solution. The control values are likewise determined by titrating the solution obtained by first adding ethanol to a reaction mixture of the composition and then adding an enzyme solution to the same. According to a proposal by Enzyme Nomenclature; recommendations (1978) of the nomenclature committee of the International Union of Biochemistry (I.U.B.), Academic Press, a unit of lipase activity is defined as that amount of lipase required to liberate 1 μmole of fatty acids per minute under reaction conditions.

Row | Compound | inhibition of lipase activity (residual activity after treatment) (10 mM) | other results
1 | [Ca+2] [Ca^2+] | No inhibition | 
2 | [Cu+2] [Cu^2+] | No inhibition | 
3 | [Fe+2] [Fe^2+] |  | inhibition of lipase activity (residual activity after treatment) (1 mM): No inhibition
4 | [Mg+2] [Mg^2+] | No inhibition | 
5 | [Mn+2] [Mn^2+] | No inhibition | 
6 | CCCCCCCC/C=C\CCCCCCCC(=O)OCCOCC(OCCO)C1OCC(OCCO)C1OCCO (stereo not shown) [Tween 80] |  | inhibition of lipase activity (0.1%): more than 90%
7 | [Zn+2] [Zn^2+] | No inhibition | 
8 | NC(=O)CI [iodine acetamide] |  | inhibition of lipase activity (2 mM): more than 90%
9 | CCCCCCCCCCCCOS(=O)(=O)[O-].[Na+] [sodium laurylsulfate (SDS), sodium laurylsulfate] |  | inhibition of lipase activity (2 mM): more than 90%
10 | Triton X-100 |  | inhibition of lipase activity (0.1%): more than 90%
